# Source: US20250059231A1, “Protease inhibitors” (priority 2021, published 2025)
# Where a SMILES comes first, the peptide text is derived from it. [ ]: non-standard residue; d: D form. The star is where a group is joined. Palmitoyl = CCCCCCCCCCCCCCCC(=O)*
# Target: T1, DENV protease (Dengue virus type 2, UniProt P29990)
# T1 construct: The virus-encoded dengue protease comprises the amino-terminal 180 amino acids of NS3 (NS3pro) of the polyprotein
# Assay: biochemical
# Settings: at 50 μM; read-out: inhibition of DENV
# Method in brief: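 DENV protease (100 nM) was pre-incubated 15 min with inhibitors in 50 mM Tris-HCl pH 9.0, 10% ethylene glycol, 0.0016% Brij 58. FRET substrate (50 μM final) started the reaction, monitored 15 min as RFU/s slope. IC50 came from triplicate means versus concentration.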
# T1 sequence (P29990 1398-1437): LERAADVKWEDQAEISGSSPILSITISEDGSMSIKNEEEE
# T1 sequence (P29990 1476-1653): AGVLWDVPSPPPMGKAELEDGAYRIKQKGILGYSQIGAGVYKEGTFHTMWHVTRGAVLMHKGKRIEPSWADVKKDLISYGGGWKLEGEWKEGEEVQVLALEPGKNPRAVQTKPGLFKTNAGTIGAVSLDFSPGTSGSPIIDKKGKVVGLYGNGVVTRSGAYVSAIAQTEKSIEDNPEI
row,SMILES,inhibition at 50 µM [%]
1,CCCCCCCCCCCCCCCC(=O)N[C@@H](CCCCN)CN1CCC[C@H]1C(=O)N[C@@H](C)C(=O)N[C@H](Cc1c[nH]c2ccccc12)C(N)=O [compound 122],≥ 25
2,CCCCCCCCCCCCCCCC(=O)N[C@@H](CCCCN)C(=O)N1CCC[C@H]1C(=O)N[C@@H](C)C(=O)N[C@H](Cc1ccccc1)C(N)=O [compound 123] (Palmitoyl-KPA[dF]-NH2),≥ 25
3,CCCCCCCCCCCCCCCC(=O)N[C@@H](CCCCN)C(=O)N1CCC[C@H]1C(=O)N[C@@H](C)C(=O)N[C@@H](C(N)=O)c1ccc(OCc2ccccc2)cc1 [compound 129],≥ 25
4,CCCCCCCCCCCCCCCC(=O)N[C@@H](CCCCN)C(=O)N[C@@H](C)C(=O)N[C@@H](C)C(=O)N[C@@H](CCCCN)C(=O)c1ccccc1 [compound 137],≥ 25

# Same assay, conditions: read-out: inhibition of DENV
row,SMILES,inhibition at 1 µM [%]
1,CCCCCCCCCCCCCCCC(=O)N[C@@H](CCCCN)C(=O)N1CCC[C@H]1C(=O)N[C@@H](C)C(=O)N[C@@H](C(N)=O)c1ccc(OCc2ccccc2)cc1 [compound 129],≥ 20
2,CCCCCCCCCCCCCCCC(=O)N[C@@H](CCCCN)C(=O)N[C@@H](C)C(=O)N[C@@H](C)C(=O)N[C@@H](CCCCN)C(=O)c1ccccc1 [compound 137],≥ 20

# Target: T2, WNV protease (West Nile virus, UniProt P06935)
# T2 construct: a trypsin-like serine protease domain in the N-terminal region of the flaviviral NS3 proteins
# T2 sequence (P06935 1424-1463): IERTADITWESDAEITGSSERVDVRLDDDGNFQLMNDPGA
# T2 sequence (P06935 1502-1679): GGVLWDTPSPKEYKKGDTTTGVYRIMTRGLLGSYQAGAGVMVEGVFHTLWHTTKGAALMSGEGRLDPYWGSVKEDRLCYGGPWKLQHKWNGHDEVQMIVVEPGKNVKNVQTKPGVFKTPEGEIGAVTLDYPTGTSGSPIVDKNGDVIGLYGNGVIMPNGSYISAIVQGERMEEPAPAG
# Assay: WNV protease assay (analogous procedure)
# Format: biochemical
# Settings: at 1 μM; read-out: inhibition of WNNV
# Method: (§1) By catalytic activity of the protease, the cleaved substrate results in increased fluorescence that can be monitored using a BMG Labtech Fluostar OPTIMA Microtiter fluorescence plate reader (excitation wavelength of 320 nm and a monitored emission wavelength of 405 nm). Dilutions were made starting from 10 mM stock solutions in DMSO and final concentrations were measured in triplicates. The inhibitors were preincubated for 15 min with DENV protease (100 nM) in the assay buffer (50 mM Tris-HCl pH 9.0, ethylene glycol (10% v/v), and 0.0016% Brij 58). The enzymatic reaction was initiated by the addition of the FRET substrate (final concentration 50 μM) to obtain a final assay volume of 100 μL per well. The enzymatic activity was monitored for 15 min and determined as a slope of relative fluorescence units per second (RFU/s) for each concentration. The mean of the triplicates were plotted against the corresponding concentration in CDDVault to determine the IC50-values. Analogous procedures were used to determine the inhibitory potency on WNV (Kühl et al., J. Med. Chem. 2020, 63 (15): 8179-8197) and ZIKA protease (Nitsche et al., ACS Med. Chem. Lett. 2019 Feb. 14; 10 (2): 168-174). For selectivity screening of active candidates, similar biochemical assays with human serine proteases trypsin (Weigel et al., J. Med. Chem. 2015, 58 (19), 7719-7733.) and/or thrombin (Nitsche et al., J. Med. Chem. 2013, 56 (21), 8389-8403) were used.
row,SMILES,inhibition at 1 µM [%]
1,CCCCCCCCCCCCCCCC(=O)N[C@@H](CCCCN)C(=O)N[C@@H](C)C(=O)N[C@@H](C)C(=O)N[C@@H](CCCCN)C(=O)c1ccccc1 [compound 137],≥ 10

# Same assay, conditions: at 50 μM
row,SMILES,inhibition at 50 µM [%]
1,CCCCCCCCCCCCCCCC(=O)N[C@@H](CCCCN)CN1CCC[C@H]1C(=O)N[C@@H](C)C(=O)N[C@H](Cc1c[nH]c2ccccc12)C(N)=O [compound 122],≥ 25
2,CCCCCCCCCCCCCCCC(=O)N[C@@H](CCCCN)C(=O)N1CCC[C@H]1C(=O)N[C@@H](C)C(=O)N[C@H](Cc1ccccc1)C(N)=O [compound 123] (Palmitoyl-KPA[dF]-NH2),≥ 25
3,CCCCCCCCCCCCCCCC(=O)N[C@@H](CCCCN)C(=O)N1CCC[C@H]1C(=O)N[C@@H](C)C(=O)N[C@@H](C(N)=O)c1ccc(OCc2ccccc2)cc1 [compound 129],≥ 25
4,CCCCCCCCCCCCCCCC(=O)N[C@@H](CCCCN)C(=O)N[C@@H](C)C(=O)N[C@@H](C)C(=O)N[C@@H](CCCCN)C(=O)c1ccccc1 [compound 137],≥ 25

# Target: T3, ZIKA protease (Zika virus, UniProt Q32ZE1)
# T3 construct: a trypsin-like serine protease domain in the N-terminal region of the flaviviral NS3 proteins
# T3 sequence (Q32ZE1 1499-1676): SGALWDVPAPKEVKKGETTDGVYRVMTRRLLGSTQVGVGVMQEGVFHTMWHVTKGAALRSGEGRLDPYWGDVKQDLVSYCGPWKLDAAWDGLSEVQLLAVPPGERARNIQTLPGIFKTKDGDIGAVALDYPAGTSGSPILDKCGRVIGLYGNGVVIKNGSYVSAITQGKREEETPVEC
# T3 sequence (Q32ZE1 1421-1460): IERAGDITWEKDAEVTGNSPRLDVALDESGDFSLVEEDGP
# Assay: biochemical
# Settings: not given
# Method: as §1
row,SMILES,IC50 [µM]
1,CCCCCCCCCCCCCCCC(=O)N[C@@H](CCCCN)CN1CCC[C@H]1C(=O)N[C@@H](C)C(=O)N[C@H](Cc1c[nH]c2ccccc12)C(N)=O [compound 122],≤ 25
2,CCCCCCCCCCCCCCCC(=O)N[C@@H](CCCCN)C(=O)N1CCC[C@H]1C(=O)N[C@@H](C)C(=O)N[C@H](Cc1ccccc1)C(N)=O [compound 123] (Palmitoyl-KPA[dF]-NH2),≤ 25
3,CCCCCCCCCCCCCCCC(=O)N[C@@H](CCCCN)C(=O)N1CCC[C@H]1C(=O)N[C@@H](C)C(=O)N[C@@H](C(N)=O)c1ccc(OCc2ccccc2)cc1 [compound 129],≤ 25
4,CCCCCCCCCCCCCCCC(=O)N[C@@H](CCCCN)C(=O)N[C@@H](C)C(=O)N[C@@H](C)C(=O)N[C@@H](CCCCN)C(=O)c1ccccc1 [compound 137],≤ 25

# Same assay, conditions: at 1 μM; read-out: inhibition of ZIKV
row,SMILES,inhibition at 1 µM [%]
1,CCCCCCCCCCCCCCCC(=O)N[C@@H](CCCCN)C(=O)N1CCC[C@H]1C(=O)N[C@@H](C)C(=O)N[C@H](Cc1ccccc1)C(N)=O [compound 123] (Palmitoyl-KPA[dF]-NH2),≥ 10

# Same assay, conditions: at 50 μM; read-out: inhibition of ZIKV
row,SMILES,inhibition at 50 µM [%]
1,CCCCCCCCCCCCCCCC(=O)N[C@@H](CCCCN)CN1CCC[C@H]1C(=O)N[C@@H](C)C(=O)N[C@H](Cc1c[nH]c2ccccc12)C(N)=O [compound 122],≥ 65
2,CCCCCCCCCCCCCCCC(=O)N[C@@H](CCCCN)C(=O)N1CCC[C@H]1C(=O)N[C@@H](C)C(=O)N[C@H](Cc1ccccc1)C(N)=O [compound 123] (Palmitoyl-KPA[dF]-NH2),≥ 65

# Same assay, conditions: read-out: inhibition of ZIKV
SMILES,inhibition at 1 µM [%],inhibition at 50 µM [%]
CCCCCCCCCCCCCCCC(=O)N[C@@H](CCCCN)C(=O)N1CCC[C@H]1C(=O)N[C@@H](C)C(=O)N[C@@H](C(N)=O)c1ccc(OCc2ccccc2)cc1 [compound 129],≥ 10,≥ 65
CCCCCCCCCCCCCCCC(=O)N[C@@H](CCCCN)C(=O)N[C@@H](C)C(=O)N[C@@H](C)C(=O)N[C@@H](CCCCN)C(=O)c1ccccc1 [compound 137],≥ 10,≥ 65

# Target: human Thrombin (Homo sapiens, UniProt P00734)
# Assay: Selectivity screening, human serine protease thrombin
# Format: biochemical
# Settings: at 5 μM; read-out: inhibition of human Thrombin
# Method: as §1
row,SMILES,inhibition at 5 µM [%]
1,CCCCCCCCCCCCCCCC(=O)N[C@@H](CCCCN)CN1CCC[C@H]1C(=O)N[C@@H](C)C(=O)N[C@H](Cc1c[nH]c2ccccc12)C(N)=O [compound 122],< 5
2,CCCCCCCCCCCCCCCC(=O)N[C@@H](CCCCN)C(=O)N1CCC[C@H]1C(=O)N[C@@H](C)C(=O)N[C@H](Cc1ccccc1)C(N)=O [compound 123] (Palmitoyl-KPA[dF]-NH2),< 5

# Same assay, conditions: read-out: inhibition of human Thrombin
row,SMILES,inhibition at 5 µM [%]
1,CCCCCCCCCCCCCCCC(=O)N[C@@H](CCCCN)C(=O)N1CCC[C@H]1C(=O)N[C@@H](C)C(=O)N[C@@H](C(N)=O)c1ccc(OCc2ccccc2)cc1 [compound 129],< 5
2,CCCCCCCCCCCCCCCC(=O)N[C@@H](CCCCN)C(=O)N[C@@H](C)C(=O)N[C@@H](C)C(=O)N[C@@H](CCCCN)C(=O)c1ccccc1 [compound 137],< 5

# Target: human Trypsin (Homo sapiens, UniProt P07477)
# Assay: Selectivity screening, human serine protease trypsin
# Format: biochemical
# Settings: at 5 μM; read-out: inhibition of human Trypsin
# Method: as §1
row,SMILES,inhibition at 5 µM [%]
1,CCCCCCCCCCCCCCCC(=O)N[C@@H](CCCCN)CN1CCC[C@H]1C(=O)N[C@@H](C)C(=O)N[C@H](Cc1c[nH]c2ccccc12)C(N)=O [compound 122],< 10
2,CCCCCCCCCCCCCCCC(=O)N[C@@H](CCCCN)C(=O)N1CCC[C@H]1C(=O)N[C@@H](C)C(=O)N[C@H](Cc1ccccc1)C(N)=O [compound 123] (Palmitoyl-KPA[dF]-NH2),< 10

# Same assay, conditions: at 25 μM; read-out: inhibition of human Trypsin
row,SMILES,inhibition at 25 µM [%]
1,CCCCCCCCCCCCCCCC(=O)N[C@@H](CCCCN)CN1CCC[C@H]1C(=O)N[C@@H](C)C(=O)N[C@H](Cc1c[nH]c2ccccc12)C(N)=O [compound 122],< 20
2,CCCCCCCCCCCCCCCC(=O)N[C@@H](CCCCN)C(=O)N1CCC[C@H]1C(=O)N[C@@H](C)C(=O)N[C@H](Cc1ccccc1)C(N)=O [compound 123] (Palmitoyl-KPA[dF]-NH2),< 20

# Same assay, conditions: read-out: inhibition of human Trypsin
SMILES,inhibition at 5 µM [%],inhibition at 25 µM [%]
CCCCCCCCCCCCCCCC(=O)N[C@@H](CCCCN)C(=O)N1CCC[C@H]1C(=O)N[C@@H](C)C(=O)N[C@@H](C(N)=O)c1ccc(OCc2ccccc2)cc1 [compound 129],< 10,< 20
CCCCCCCCCCCCCCCC(=O)N[C@@H](CCCCN)C(=O)N[C@@H](C)C(=O)N[C@@H](C)C(=O)N[C@@H](CCCCN)C(=O)c1ccccc1 [compound 137],< 10,< 20

# Target: T2, WNV protease
# Assay: WNV protease assay (analogous procedure)
# Format: biochemical
# Settings: read-out: IC50 for WNNV
row,SMILES,IC50 [µM]
1,CCCCCCCCCCCCCCCC(=O)N[C@@H](CCCCN)CN1CCC[C@H]1C(=O)N[C@@H](C)C(=O)N[C@H](Cc1c[nH]c2ccccc12)C(N)=O [compound 122],≤ 40
2,CCCCCCCCCCCCCCCC(=O)N[C@@H](CCCCN)C(=O)N1CCC[C@H]1C(=O)N[C@@H](C)C(=O)N[C@H](Cc1ccccc1)C(N)=O [compound 123] (Palmitoyl-KPA[dF]-NH2),≤ 40
3,CCCCCCCCCCCCCCCC(=O)N[C@@H](CCCCN)C(=O)N1CCC[C@H]1C(=O)N[C@@H](C)C(=O)N[C@@H](C(N)=O)c1ccc(OCc2ccccc2)cc1 [compound 129],≤ 40
4,CCCCCCCCCCCCCCCC(=O)N[C@@H](CCCCN)C(=O)N[C@@H](C)C(=O)N[C@@H](C)C(=O)N[C@@H](CCCCN)C(=O)c1ccccc1 [compound 137],≤ 40
